Experimental data taken from ChEMBL document CHEMBL3885881, “DrugMatrix”.

Species: Rattus norvegicus
Test: DrugMatrix - Regimen: Daily Repeat
Type: toxicity, organism-based, Sprague-Dawley
Design: regimen Daily Repeat, gender Male, age 6-8 weeks
Details: in vivo, po, 1500 mg/kg, route oral GAVAGE, dose level High, vehicle .5 % CMC; for ABSOLUTE BASOPHIL / ABSOLUTE EOSINOPHIL / ABSOLUTE LYMPHOCYTE / ABSOLUTE MONOCYTE / ABSOLUTE SEGMENTED NEUTROPHIL / BASOPHIL / EOSINOPHIL / ERYTHROCYTE COUNT / HEMATOCRIT / HEMOGLOBIN / LEUKOCYTE COUNT / LYMPHOCYTE / MEAN CORPUSCULAR HEMOGLOBIN / MEAN CORPUSCULAR HEMOGLOBIN CONCENTRATION / MEAN CORPUSCULAR VOLUME / MONOCYTE / NEUTROPHIL / NUCLEATED RED BLOOD CELLS / PLATELET COUNT: tissue Blood; for ALANINE AMINOTRANSFERASE / ALBUMIN / ALKALINE PHOSPHATASE / ASPARTATE AMINOTRANSFERASE / BLOOD UREA NITROGEN / CARBON DIOXIDE / CHLORIDE / CHOLESTEROL / CREATINE PHOSPHOKINASE / CREATININE / GLUCOSE / LACTATE DEHYDROGENASE / LIPASE / PHOSPHORUS / POTASSIUM / SODIUM / TOTAL BILIRUBIN / TOTAL PROTEIN / URIC ACID: tissue Plasma

O=C(N[C@H](CO)[C@H](O)c1ccc([N+](=O)[O-])cc1)C(Cl)Cl [CHLORAMPHENICOL]
ABSOLUTE BASOPHIL (72 h, time 3 day): 0 CELLS/uL
ABSOLUTE EOSINOPHIL (72 h, time 3 day): 0 CELLS/uL
ABSOLUTE LYMPHOCYTE (72 h, time 3 day): 14694 CELLS/uL
ABSOLUTE MONOCYTE (72 h, time 3 day): 312.67 CELLS/uL
ABSOLUTE SEGMENTED NEUTROPHIL (72 h, time 3 day): 793.33 CELLS/uL
BASOPHIL (72 h, time 3 day): 0%
EOSINOPHIL (72 h, time 3 day): 0%
ERYTHROCYTE COUNT (72 h, time 3 day): 5.41 x10E6/uL
HEMATOCRIT (72 h, time 3 day): 34.37%
HEMOGLOBIN (72 h, time 3 day): 13.67 G/DL
LEUKOCYTE COUNT (72 h, time 3 day): 15.8 x10E3/uL
LYMPHOCYTE (72 h, time 3 day): 93%
MEAN CORPUSCULAR HEMOGLOBIN (72 h, time 3 day): 25.33 pg
MEAN CORPUSCULAR HEMOGLOBIN CONCENTRATION (72 h, time 3 day): 39.83 G/DL
MEAN CORPUSCULAR VOLUME (72 h, time 3 day): 63.63 fL
MONOCYTE (72 h, time 3 day): 2%
NEUTROPHIL (72 h, time 3 day): 5%
NUCLEATED RED BLOOD CELLS (72 h, time 3 day): 0 /100WBC
PLATELET COUNT (72 h, time 3 day): 1264 x10E3/uL
ALANINE AMINOTRANSFERASE (72 h, time 3 day): 78 u/L
ALBUMIN (72 h, time 3 day): 4.33 G/DL
ALKALINE PHOSPHATASE (72 h, time 3 day): 347 u/L
ASPARTATE AMINOTRANSFERASE (72 h, time 3 day): 90.33 u/L
BLOOD UREA NITROGEN (72 h, time 3 day): 15.67 mg/dL
CARBON DIOXIDE (72 h, time 3 day): 37.67 mmol/L
CHLORIDE (72 h, time 3 day): 101.33 MEQ/L
CHOLESTEROL (72 h, time 3 day): 63 mg/dL
CREATINE PHOSPHOKINASE (72 h, time 3 day): 530 u/L
CREATININE (72 h, time 3 day): 0.15 mg/dL
GLUCOSE (72 h, time 3 day): 150 mg/dL
LACTATE DEHYDROGENASE (72 h, time 3 day): 92.67 u/L
LIPASE (72 h, time 3 day): 9.33 u/L
PHOSPHORUS (72 h, time 3 day): 10.53 mg/dL
POTASSIUM (72 h, time 3 day): 6.53 MEQ/L
SODIUM (72 h, time 3 day): 143.67 MEQ/L
TOTAL BILIRUBIN (72 h, time 3 day): 0.13 mg/dL
TOTAL PROTEIN (72 h, time 3 day): 5.6 G/DL
URIC ACID (72 h, time 3 day): 1.4 mg/dL
ABSOLUTE BASOPHIL (120 h, time 5 day): 0 CELLS/uL
ABSOLUTE EOSINOPHIL (120 h, time 5 day): 0 CELLS/uL
ABSOLUTE LYMPHOCYTE (120 h, time 5 day): 13927 CELLS/uL
ABSOLUTE MONOCYTE (120 h, time 5 day): 280 CELLS/uL
ABSOLUTE SEGMENTED NEUTROPHIL (120 h, time 5 day): 1126.33 CELLS/uL
BASOPHIL (120 h, time 5 day): 0%
EOSINOPHIL (120 h, time 5 day): 0%
ERYTHROCYTE COUNT (120 h, time 5 day): 5.7 x10E6/uL
HEMATOCRIT (120 h, time 5 day): 35.27%
HEMOGLOBIN (120 h, time 5 day): 14.27 G/DL
LEUKOCYTE COUNT (120 h, time 5 day): 15.33 x10E3/uL
LYMPHOCYTE (120 h, time 5 day): 90.67%
MEAN CORPUSCULAR HEMOGLOBIN (120 h, time 5 day): 25.07 pg
MEAN CORPUSCULAR HEMOGLOBIN CONCENTRATION (120 h, time 5 day): 40.5 G/DL
MEAN CORPUSCULAR VOLUME (120 h, time 5 day): 61.9 fL
MONOCYTE (120 h, time 5 day): 2%
NEUTROPHIL (120 h, time 5 day): 7.33%
NUCLEATED RED BLOOD CELLS (120 h, time 5 day): 0.33 /100WBC
PLATELET COUNT (120 h, time 5 day): 1090 x10E3/uL
ALANINE AMINOTRANSFERASE (120 h, time 5 day): 63 u/L
ALBUMIN (120 h, time 5 day): 4.13 G/DL
ALKALINE PHOSPHATASE (120 h, time 5 day): 266.33 u/L
ASPARTATE AMINOTRANSFERASE (120 h, time 5 day): 100.33 u/L
BLOOD UREA NITROGEN (120 h, time 5 day): 22.33 mg/dL
CARBON DIOXIDE (120 h, time 5 day): 35 mmol/L
CHLORIDE (120 h, time 5 day): 103 MEQ/L
CHOLESTEROL (120 h, time 5 day): 56 mg/dL
CREATINE PHOSPHOKINASE (120 h, time 5 day): 359.67 u/L
CREATININE (120 h, time 5 day): 0.2 mg/dL
GLUCOSE (120 h, time 5 day): 144 mg/dL
LACTATE DEHYDROGENASE (120 h, time 5 day): 180 u/L
LIPASE (120 h, time 5 day): 8.67 u/L
PHOSPHORUS (120 h, time 5 day): 9.33 mg/dL
POTASSIUM (120 h, time 5 day): 9.76 MEQ/L
SODIUM (120 h, time 5 day): 143.67 MEQ/L
TOTAL BILIRUBIN (120 h, time 5 day): 0.17 mg/dL
TOTAL PROTEIN (120 h, time 5 day): 5.23 G/DL
URIC ACID (120 h, time 5 day): 1.3 mg/dL
